How the values were obtained:
neuron cells = assay: Neuroprotection of neuron cells against fAβ; format: cell-based; details: for protection of neuron cells from zinc-induced fAβ: FIGS. 3A-B
Description: FIGS. 3A-B show compound C12 acting as a neuroprotective agent targeting fAβ.
(§1) Only compound C12 was effective toward zinc-free aggregates (FIG. 3B). […] Mice were assessed for the total duration of movement (FIG. 7A) and total duration of distance (FIG. 7B) to climb onto the hidden platform; and also quantified the appearance to target zone (FIG. 7C) indicating the relative time (compared to total time in swimming) to entry into a zone around the hidden platform; and for average swimming velocity (FIG. 7D) to discriminate enhanced memory from enhanced motor activity.

[1] = test system: undifferentiated PC12 cells; assay: Neurite outgrowth on undifferentiated PC12 cells; format: cell-based; details: FIG. 4
fAβ-lesioned mice = assay: Rotarod test in fAβ-lesioned mice; format: in vivo; details: FIG. 6; for riding time in rotarod test: 10 mg/kg, fAβ-lesioned mice; for performance of learning: fAβ-induced memory-deficit mice
preformed Aβ aggregates = preformed Aβ aggregates (Homo sapiens, UniProt P05067); assay: Dissolution of preformed Aβ aggregates; format: biochemical; details: FIG. 1B and FIG. 2
[2] = test system: memory-deficit fAβ-lesioned mice; assay: Morris water maze test in memory-deficit fAβ-lesioned mice; format: in vivo; details: FIGS. 7A-D
Description: FIGS. 7A-D show the results of Morris water maze test.
as §1

Aβ = Aβ (Homo sapiens, UniProt P05067); assay: Aβ aggregation / fAβ formation, microscopy analysis after Congo red staining; format: biochemical
[3] = test system: memory-deficit fAβ-lesioned mice; assay: GAP43 level and fAβ level in memory-deficit fAβ-lesioned mice; format: in vivo; details: FIG. 8
mice = assay: Animal model: memory and toxicity in mice; format: in vivo; details: 1 to 100 mg/kg, preferable 1 to 10 mg/kg, i.p. daily; for toxicity: mice

Sequence of Aβ (P05067 672-711 limits assumed): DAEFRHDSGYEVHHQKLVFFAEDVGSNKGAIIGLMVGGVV
Sequence of preformed Aβ aggregates (P05067 672-711 limits assumed): as above

Row | Structure (SMILES) | protection of neuron cells from zinc-induced fAβ (neuron cells) | neurite outgrowth [1] | riding time in rotarod test (fAβ-lesioned mice) | performance of learning (fAβ-lesioned mice) | memory of mice (mice) | toxicity (mice) | further results
1 | Oc1c(I)cc(Cl)c2cccnc12 [CQ, reference compound] | protected |  |  |  |  |  | 
2 | CCOc1cccc2ccc(CCCCCCCCCCCO)nc12 [D3, 11-(8-ethoxyquinolin-2-yl)undecan-1-ol] |  | induction of neurite outgrowth |  |  |  |  | 
3 | COc1ccc(Cl)c2ccc(CCCCCCCCCCCO)nc12 [C12, 11-(5-chloro-8-methoxyquinolin-2-yl)undecan-1-ol] | protected |  | increased riding time | improved performance of learning | improve memory of mice | without causing significant toxicity | effectiveness toward zinc-free aggregates (neuron cells; zinc-free aggregates, FIG. 3B): effective; dissolution of preformed Aβ aggregates (preformed Aβ aggregates): dissolved preformed Aβ aggregates; learning in the Morris water maze test [2]: improved learning; polymerization of Aβ (Aβ; in the absence of zinc ions, FIG. 2): inhibiting polymerization of Aβ; Aβ aggregation (Aβ; in the presence or absence of zinc ions, Congo red staining, FIG. 1A): inhibited Aβ aggregation; GAP43 level [3]: increase in GAP43 level; fAβ level [3]: decrease in fAβ level
4 | COc1cccc2ccc(CCCCCCCCCCCO)nc12 [C3, 11-(8-methoxyquinolin-2-yl)undecan-1-ol] |  | induction of neurite outgrowth |  |  |  |  | 
5 | OCCCCCCCCCCCc1ccc2cccc(O)c2n1 [B3, 2-(11-hydroxyundecyl)quinolin-8-ol] |  | induction of neurite outgrowth | increased riding time | improved performance of learning | improve memory of mice | without causing significant toxicity | 
